This is an account of results in patent publication US20250129123A1, “BIOMIMETIC PEPTIDES AND THEIR USE IN BONE REGENERATION” (SILK BIOMATERIALS S.R.L., priority 2021, published 2025).

Ends that are not written are not given here.

Assay [1] concerns human mesenchymal stem cells (MSCs). In words: Mineralization test (von Kossa staining) of fibroin foams incubated with human mesenchymal stem cells. Particulars: presence of MSC (+MSC), complete medium, 7 days, decellularized foams. The class given is cell-based. The method, then: (§1) Human mesenchymal stem cells (MSCs) were purchased from Lonza and cultured in Dulbecco's Modified Eagle's Medium (DMEM), supplemented with 10% MSC Stimulatory Supplement, 100 U/mL penicillin-streptomycin and non-essential amino acids at 37° C. in a fully humidified atmosphere at 5% CO2. The fibroin foams were placed in a 96-well plate, immersed in 70% ethanol for 30 minutes, washed in phosphate buffered saline (PBS) three times, immersed in 100 U/mL penicillin-streptomycin overnight and washed three times in PBS. MSC (10^4/50 μL) were seeded by pipetting onto different points of the foam to improve the distribution of the cells within the foam and allowed to adhere for 30 minutes. Subsequently, 150 μL of complete medium were added to each well. As a negative control, the fibroin foams were kept in the complete cell-free medium. The medium was changed every two days.
(§2) The foams were washed twice with PBS (not containing magnesium/calcium ions) before cell lysis and protein extraction. Cell lysis was performed using the HEPES buffer (50 mM HEPES, pH 7.4, 150 mM NaCl, 10% (v/v) glycerol, 1% (v/v) Triton X-100, 1.5 mM MgCl2, 1 mM EGTA) containing 100 mM NaF, 1 mM NaVO4, 1 μg/mL leupeptin, and 1 μg/mL aprotinin. After 30 minutes on ice, the extracts were centrifuged for 10 minutes at 13,000 g as cell lysate and stored at −20° C. The remaining deposited matrix was washed twice with PBS (not containing magnesium/calcium ions). To fix the matrix on the fibroin foams […] was added in ultrapure water at room temperature for 10 minutes and then two washes with ultrapure water were performed. […]
(§3) The human mesenchymal stem cells (MSCs) were cultured for 7 days in the fibroin foams functionalized with the biomimetic peptides, using a non-functionalized fibroin foam as a reference. […] The extent of calcium deposit was studied by means of von Kossa staining and quantified by image analysis with ImageJ software. […] The threshold was adjusted manually, and the percentage area covered by the signal above the threshold was measured.

The nature of assay [2]: Mineralization test (von Kossa staining) of fibroin foams in complete medium in the absence of cells. Particulars: absence of MSC (NO MSC), 7 days. The method, then:
as §1, §2, §3

The nature of assay [3]: SEM/EDX chemical characterization of fibroin foams incubated in SBF. Particulars: fibroin foam functionalized with peptide, 14 days, aggregates "Object 10437". The method, then: […]
The fibroin foam samples were analysed in SEM/EDX in order to morphologically and compositionally identify the mineral formations constituted by calcium and phosphate salts.

For the sequence GPYVAHGGYSGYEY, the “amount of deposited calcium (percentage area covered by von Kossa staining) versus non-functionalized foam” value in assay [1] and in assay [2] was “always higher” each time.
Regarding SGYEYAWSSESDF, the “amount of deposited calcium (percentage area covered by von Kossa staining) versus non-functionalized foam” value in assay [1] and in assay [2] was “always higher” in each case.
For the sequence VNGGYSGYEYAW, the “amount of deposited calcium (percentage area covered by von Kossa staining) versus non-functionalized foam” value in assay [1] and in assay [2] was “always higher” each time. Moreover, the “chemical composition of the crystalline aggregates (SEM/EDX)” value in assay [3] is “intense signals of calcium (Ca) and phosphorus (P)”.
